Data on 21 compounds can be found in ChEMBL document CHEMBL1127622, “Tyrosine kinase inhibitors. 2. Synthesis of 2,2'-dithiobis(1H-indole-3-alkanamides) and investigation of their inhibitory activity against epidermal growth factor receptor and pp60v-src protein tyrosine kinases” (J Med Chem, 1994).

For one assay, the system named is NIH3T3. Nature of the assay: Compound was tested for the concentration necessary to inhibit swiss 3T3 Mouse Fibroblast cell growth rate by 50%. The format is functional, cell-based.
The target of assay [1] is Epidermal growth factor receptor (Homo sapiens, UniProt P00533). Nature of the assay: Inhibition of the tyrosine kinase activity of the human epidermal growth factor receptor (EGFR).
Chain of Epidermal growth factor receptor (P00533 whole entry): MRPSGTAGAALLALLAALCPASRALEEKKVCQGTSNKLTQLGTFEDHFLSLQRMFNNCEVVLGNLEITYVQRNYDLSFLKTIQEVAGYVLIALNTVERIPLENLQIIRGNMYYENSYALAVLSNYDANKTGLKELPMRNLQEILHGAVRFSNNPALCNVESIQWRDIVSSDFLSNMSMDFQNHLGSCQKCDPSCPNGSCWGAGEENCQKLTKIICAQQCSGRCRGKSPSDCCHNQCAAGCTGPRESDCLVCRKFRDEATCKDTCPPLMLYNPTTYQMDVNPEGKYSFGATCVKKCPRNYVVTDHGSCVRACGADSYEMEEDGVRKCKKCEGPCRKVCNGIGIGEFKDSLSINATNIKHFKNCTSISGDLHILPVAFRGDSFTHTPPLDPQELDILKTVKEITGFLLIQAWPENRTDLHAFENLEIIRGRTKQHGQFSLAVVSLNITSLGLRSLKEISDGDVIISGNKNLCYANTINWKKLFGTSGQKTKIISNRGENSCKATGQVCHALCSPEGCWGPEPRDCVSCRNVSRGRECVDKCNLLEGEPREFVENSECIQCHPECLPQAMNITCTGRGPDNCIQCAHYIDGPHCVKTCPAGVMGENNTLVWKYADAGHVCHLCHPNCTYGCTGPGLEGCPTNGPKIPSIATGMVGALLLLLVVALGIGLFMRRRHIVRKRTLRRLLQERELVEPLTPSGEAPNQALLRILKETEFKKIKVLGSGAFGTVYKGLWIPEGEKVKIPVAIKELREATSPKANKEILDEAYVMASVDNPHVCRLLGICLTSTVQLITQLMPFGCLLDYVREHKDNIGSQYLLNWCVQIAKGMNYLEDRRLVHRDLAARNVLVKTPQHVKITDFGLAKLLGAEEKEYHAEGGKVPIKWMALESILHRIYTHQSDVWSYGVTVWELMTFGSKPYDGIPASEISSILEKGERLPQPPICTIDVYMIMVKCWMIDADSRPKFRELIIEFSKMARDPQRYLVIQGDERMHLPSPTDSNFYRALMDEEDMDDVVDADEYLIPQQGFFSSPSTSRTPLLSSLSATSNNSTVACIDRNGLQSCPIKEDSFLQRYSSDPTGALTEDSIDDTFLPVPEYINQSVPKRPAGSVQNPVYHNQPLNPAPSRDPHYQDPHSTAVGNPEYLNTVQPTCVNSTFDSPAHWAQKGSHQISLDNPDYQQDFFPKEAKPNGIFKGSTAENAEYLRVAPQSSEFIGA

Usually IC50 stands for the concentration that inhibits the measured activity by half. High values mean lower potency, low ones higher potency. Compound `O=C(Cc1c(SSc2[nH]c3ccccc3c2CC(=O)NCc2ccccc2)[nH]c2ccccc12)NCc1ccccc1` showed a 50% inhibitory concentration (IC50) in the assay with NIH3T3 of 2.7 µM.

Consider `O=C(CCc1c(SSc2[nH]c3ccccc3c2CCC(=O)NCCc2ccccc2)[nH]c2ccccc12)NCCc1ccccc1`, for which the IC50 in assay [1] was 24 µM.

For the compound `O=C(CCc1c(SSc2[nH]c3ccccc3c2CCC(=O)NCc2ccccc2)[nH]c2ccccc12)NCc1ccccc1`, the IC50 in the assay with NIH3T3 is 5.9 µM.

On to `CN(C)C(=O)CCc1c(SSc2[nH]c3ccccc3c2CCC(=O)N(C)C)[nH]c2ccccc12`, for which 12 µM corresponded to half-maximal inhibition in assay [1] (IC50). This lies in the double-digit micromolar range.

Take `O=C(CCc1c(SSc2[nH]c3ccccc3c2CCC(=O)NCc2ccc(C(=O)O)cc2)[nH]c2ccccc12)NCc1ccc(C(=O)O)cc1`: in assay [1], the IC50 turned out to be 7.4 µM. This IC50 lies about 1.6-fold lower than the previous one.

Compound `CNC(=O)CCc1c(SSc2[nH]c3ccccc3c2CCC(=O)NC)[nH]c2ccccc12` returned an IC50 in assay [1] of 9.4 µM. The IC50 values of the last two compounds are within 1.5-fold of each other.

In turn, `O=C(CC1C(=S)Nc2ccccc21)NCc1ccccc1` (configuration not stated) gave an IC50 in assay [1] of 100 µM.

Take `COC(=O)c1ccc(CNC(=O)CCc2c(SSc3[nH]c4ccccc4c3CCC(=O)NCc3ccc(C(=O)OC)c(O)c3)[nH]c3ccccc23)cc1O`: the IC50 in assay [1] was determined as 100 µM.

Take `CC(=O)OC(Cc1c(SSc2[nH]c3ccccc3c2CC(OC(C)=O)C(=O)NCc2ccccc2)[nH]c2ccccc12)C(=O)NCc1ccccc1` (configuration not stated): in assay [1], inhibition was half-maximal at 28 µM (IC50).

As for `NC(Cc1c(SSc2[nH]c3ccccc3c2CC(N)C(=O)NCc2ccccc2)[nH]c2ccccc12)C(=O)NCc1ccccc1` (configuration not stated), the IC50 was determined as 5.3 µM in the assay on NIH3T3 and 7.6 µM in assay [1].

In turn, `N#CCCc1c(SSc2[nH]c3ccccc3c2CCC#N)[nH]c2ccccc12` displayed an IC50 in assay [1] of 47 µM.

On to `O=C(NCc1ccccc1)C(Cc1c(SSc2[nH]c3ccccc3c2CC(NC(=O)C(F)(F)F)C(=O)NCc2ccccc2)[nH]c2ccccc12)NC(=O)C(F)(F)F` (configuration not stated), for which the IC50 in assay [1] was over 100 µM.

Take `O=C(NCc1ccccc1)C(O)Cc1c(SSc2[nH]c3ccccc3c2CC(O)C(=O)NCc2ccccc2)[nH]c2ccccc12` (configuration not stated): the half-inhibitory concentration (IC50) in assay [1] amounted to 14 µM. In other words, the double-digit micromolar range.

In turn, `O=C(CCCc1c(SSc2[nH]c3ccccc3c2CCCC(=O)NCc2ccccc2)[nH]c2ccccc12)NCc1ccccc1` showed an IC50 in assay [1] of 100 µM. This IC50 is about 7.1-fold higher than that of the compound before.

In assay [1], `O=[N+]([O-])CCc1c(SSc2[nH]c3ccccc3c2CC[N+](=O)[O-])[nH]c2ccccc12` had an IC50 of 89 µM.

As for `O=C(O)CCc1c(SSc2[nH]c3ccccc3c2CCC(=O)O)[nH]c2ccccc12`, the IC50 with NIH3T3 turned out to be 60 µM.

Consider `O=C(CCC1C(=S)Nc2ccccc21)NCc1ccccc1` (configuration not stated), for which the IC50 in assay [1] was 100 µM.

In assay [1], `O=C(CCc1c(SSc2[nH]c3ccccc3c2CCC(=O)NCc2ccc(C(=O)O)c(O)c2)[nH]c2ccccc12)NCc1ccc(C(=O)O)c(O)c1` displayed an IC50 of 8.5 µM. Compared with the last compound, the IC50 is about 12-fold lower.

Compound `N#CCc1c(SSc2[nH]c3ccccc3c2CC#N)[nH]c2ccccc12` showed an IC50 in assay [1] of 32 µM.

`CC(=O)NC(Cc1c(SSc2[nH]c3ccccc3c2CC(NC(C)=O)C(=O)NCc2ccccc2)[nH]c2ccccc12)C(=O)NCc1ccccc1` (configuration not stated) gave an IC50 in assay [1] of 51 µM.

`O=C(CCc1c(SSc2[nH]c3ccccc3c2CCC(=O)Nc2ccccc2)[nH]c2ccccc12)Nc1ccccc1`: in assay [1], it took 25 µM to reach half-maximal inhibition (IC50).
